According to patent publication US4255433A, “(+)-(3-Methyl-4-oxo-5N-piperidinothiazolidin-2-ylidene)acetic acid esters, method of preparation and use” (Godecke Aktiengesellschaft, priority 1979, dated 1981):
“Also recorded” adds a separate entry of the source. Read-outs that look alike come from different tables or passages of the source.

Assays:
[1] = Racemization of (+)-ozolinone in 0.1N hydrochloric acid and in chloroform; format: physicochemical; settings: read-out: degree of racemization
Procedure: Esterification of the known, optically-active (+)-(3-methyl-4-oxo-5N-piperidinothiazolidin-2-ylidene)-acetic acid [(+)-ozolinone (see Federal Republic of Germany Patent Specification No. 26 58 858)] also cannot be carried out with agents which can be used on a large scale because it racemizes under the esterification conditions. Thus, for example, (+)-ozolinone racemizes to an extent of 15% in 0.1N hydrochloric acid in less than 1 hour. Even in chloroform, in the same period of time, the degree of racemization which occurs is about 10%.

[2] = Acute toxicity in rats (intragastral, 7 days observation, LD50 by Weber's probit analysis); format: in vivo, rat (SIV 50 strain); settings: rat, in vivo, po
Procedure: (§1) The experimental animals used were male and female rats of the SIV 50 strain with a body weight of 115 to 170 g and of 100 to 160 g, respectively. All the animals were fasted for 20 hours before the commencement of the experiments, water was available ad libitum. There were 10 animals in each dosage group. The test substances were administered intragastrally with a metal probe in the form of 1% tragacanth slurry suspensions (4 ml/100 g of body weight).
(§2) The animals were observed over a period of time of 7 days. For the calculation of the LD50 with the related confidence limits, use was made of Weber's probit analysis (see Grundriss der Biologischen Statistik, pub. Gustav Fischer Verlag, Jena, 1-72).

[3] = cited from earlier work
[4] = tested on: rats with renovascular high blood pressure; experiment: Renovascular high blood pressure in rats; format: in vivo, rat (SIV 50 strain); set-up: average blood pressure: unit: mmHg
Source text: The antihypertensive properties were investigated in rats which, after experimental ligature of the kidney blood flow, had developed a renovascular high blood pressure. The experimental animals used were male rats of the SIV 50 strain which, under ether narcosis, had been monolaterally nephrectomised and the contralateral renal arteries of which had been stenosed 2 days later with the help of silver clips. After 6 to 8 weeks, these animals developed a high blood pressure. The blood pressure measurement took place bloodlessly on the root of the tail of the animals. The test substances were administered intragastrally once daily as tragacanth slurry suspensions for 33 days.

awake rats (diuresis) = experiment: Diuresis in awake rats (urine volume within the first 4 hours); format: in vivo, rat (SIV 50 strain); settings: intragastral, urine volume in 4 hours, FIG. 2
Procedure: The experimental animals used were male rats of the SIV 50 strain which were kept under constant conditions. Feed was removed 36 hours before the commencement of the experiments but water was available until just before the commencement of the experiment. The test substances were administered intragastrally as suspensions in 1% tragacanth slurry which has been prepared with a 0.2% sodium chloride solution (1 ml/100 g body weight). In addition, the animals were given intragastrally 4 ml/100 g body weight a 0.2% sodium chloride solution. The animals were kept individually in metabolic cages in order to determine the urine volumes within the first 4 hours.

mice = settings: male mice; literature (Meng-Loew, Diuretika, 1974); cited from earlier work
[5] = tested on: male and female rats of the SIV 50 strain; experiment: Acute toxicity in rats (intragastral, 7 days observation, LD50 by Weber's probit analysis); format: in vivo, rat (SIV 50 strain); settings: rat
Procedure: as §1, §2

[6] = 100 mg/kg i.g., 2nd day after treatment
[7] = 100 mg/kg i.g., 20th day of treatment
[8] = 100 mg/kg i.g., before treatment
[9] = 200 mg/kg i.g., 8th day after treatment
[10] = 200 mg/kg i.g., 10th day of treatment
[11] = 200 mg/kg i.g., 17th day of treatment
[12] = 200 mg/kg i.g., 33rd day of treatment
[13] = 200 mg/kg i.g., before treatment

SMILES | LD50 at 168 h ([2]; female rat) | LD50 at 168 h ([2]; male rat) | average blood pressure [4, 6] | average blood pressure [4, 7] | average blood pressure [4, 8] | average blood pressure [4, 9] | average blood pressure [4, 10] | average blood pressure [4, 11] | average blood pressure [4, 12] | average blood pressure [4, 13] | diuretic action (in words) (awake rats (diuresis)) | LD50 (mice) | also measured
CN1C(=O)C(N2CCCCC2)SC1=CC(=O)O (single isomer, unassigned; (+)) [(+)-ozolinone, (+)-(3-methyl-4-oxo-5N-piperidinothiazolidin-2-ylidene)-acetic acid] |  |  |  |  |  |  |  |  |  |  |  |  | degraded at 1 h ([1]; 0.1N hydrochloric acid, less than 1 hour): 15%; degraded at 1 h ([1]; chloroform, same period of time (less than 1 hour)): ~10%
CCOC(=O)C=C1SC(N2CCCCC2)C(=O)N1C (racemic) [Compound A, ethyl (±)-(3-methyl-4-oxo-5N-piperidinothiazolidin-2-ylidene)acetate] | 10200 mg/kg | 11000 mg/kg | 195 | 175 | 197 | 182 | 171 | 182 | 174 | 187 | diuretically effective in a dosage dependent manner |  | antihypertensive activity (in words) ([3]; published): good antihypertensive activity; diuretic / saluretic activity (in words) ([3]; published): strong diuretic and saluretic properties; antihypertensive effect at subdiuretic doses (in words) ([3]; subdiuretic doses, DE 25 32 180): even at subdiuretic doses, an antihypertensive effect occurs
C=C(CC)C(=O)c1ccc(OCC(=O)O)c(Cl)c1Cl [Compound F, [2,3-dichloro-4-(2-methylene-1-oxobutyl)phenoxy]acetic acid] |  |  |  |  |  |  |  |  |  |  |  | 600 mg/kg | 
CCOC(=O)C=C1SC(N2CCCCC2)C(=O)N1C (single isomer, unassigned) [Compound C, ethyl (-)-(3-methyl-4-oxo-5N-piperidinothiazolidin-2-ylidene)acetate] |  |  | 201 | 176 | 191 | 190 | 178 | 176 | 164 | 192 | diuretically effective in a dosage dependent manner |  | 
NS(=O)(=O)c1cc2c(cc1Cl)NCNS2(=O)=O [Compound D, 6-chloro-3,4-dihydro-2H-1,2,4-benzothiadiazine-7-sulphonamide 1,1-dioxide] |  |  |  |  |  |  |  |  |  |  |  | 3,080 mg/kg | 
CCOC(=O)C=C1SC(N2CCCCC2)C(=O)N1C (single isomer, unassigned) [Compound B, ethyl (+)-(3-methyl-4-oxo-5N-piperidinothiazolidin-2-ylidene)acetate] | 4230 mg/kg | 3650 mg/kg | 190 | 164 | 189 | 182 | 159 | 150 | 156 | 185 | diuretically inactive; also recorded: does not possess any diuretic action at all |  | acute toxicity (in words) [5]: more toxic than Compound A; also recorded: extraordinarily nontoxic; LD50 at 168 h ([2]; bound stated): > 2000 mg/kg; antihypertensive action (in words) ([4]; rats with renovascular high blood pressure): possesses the strongest antihypertensive action and that this effect is dosage dependent
